Laboratory results from patent publication US12065436B2, “Cardiac sarcomere inhibitors” (Cytokinetics, Inc., priority 2018, dated 2024).

Molecular target: bovine cardiac myofibrils (full-length cardiac myosin ATPase in the native sarcomere) (Bos taurus (Bovine), UniProt Q9BE39)
Experiment: Skinned bovine cardiac myofibril ATPase assay (PK/LDH-coupled)
Format: biochemical
Conditions: Ca2+ activating to 75% of maximal rate; for CDMF75 IC15: concentration giving 15% inhibition; for IC50: read-out: CDMF75 IC50
Outline: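 Triton-skinned bovine left-ventricle myofibrils (1 mg/mL) in PM 12 buffer (12 mM PIPES, 2 mM MgCl2, pH 6.8) with 50 μM ATP, 0.6 mM EGTA and CaCl2 set for 50% or 75% activation. Steady-state ATPase inhibition followed by PK/LDH-coupled NADH oxidation at 340 nm.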

bovine cardiac myofibrils (full-length cardiac myosin ATPase in the native sarcomere), sequence (Q9BE39 whole entry): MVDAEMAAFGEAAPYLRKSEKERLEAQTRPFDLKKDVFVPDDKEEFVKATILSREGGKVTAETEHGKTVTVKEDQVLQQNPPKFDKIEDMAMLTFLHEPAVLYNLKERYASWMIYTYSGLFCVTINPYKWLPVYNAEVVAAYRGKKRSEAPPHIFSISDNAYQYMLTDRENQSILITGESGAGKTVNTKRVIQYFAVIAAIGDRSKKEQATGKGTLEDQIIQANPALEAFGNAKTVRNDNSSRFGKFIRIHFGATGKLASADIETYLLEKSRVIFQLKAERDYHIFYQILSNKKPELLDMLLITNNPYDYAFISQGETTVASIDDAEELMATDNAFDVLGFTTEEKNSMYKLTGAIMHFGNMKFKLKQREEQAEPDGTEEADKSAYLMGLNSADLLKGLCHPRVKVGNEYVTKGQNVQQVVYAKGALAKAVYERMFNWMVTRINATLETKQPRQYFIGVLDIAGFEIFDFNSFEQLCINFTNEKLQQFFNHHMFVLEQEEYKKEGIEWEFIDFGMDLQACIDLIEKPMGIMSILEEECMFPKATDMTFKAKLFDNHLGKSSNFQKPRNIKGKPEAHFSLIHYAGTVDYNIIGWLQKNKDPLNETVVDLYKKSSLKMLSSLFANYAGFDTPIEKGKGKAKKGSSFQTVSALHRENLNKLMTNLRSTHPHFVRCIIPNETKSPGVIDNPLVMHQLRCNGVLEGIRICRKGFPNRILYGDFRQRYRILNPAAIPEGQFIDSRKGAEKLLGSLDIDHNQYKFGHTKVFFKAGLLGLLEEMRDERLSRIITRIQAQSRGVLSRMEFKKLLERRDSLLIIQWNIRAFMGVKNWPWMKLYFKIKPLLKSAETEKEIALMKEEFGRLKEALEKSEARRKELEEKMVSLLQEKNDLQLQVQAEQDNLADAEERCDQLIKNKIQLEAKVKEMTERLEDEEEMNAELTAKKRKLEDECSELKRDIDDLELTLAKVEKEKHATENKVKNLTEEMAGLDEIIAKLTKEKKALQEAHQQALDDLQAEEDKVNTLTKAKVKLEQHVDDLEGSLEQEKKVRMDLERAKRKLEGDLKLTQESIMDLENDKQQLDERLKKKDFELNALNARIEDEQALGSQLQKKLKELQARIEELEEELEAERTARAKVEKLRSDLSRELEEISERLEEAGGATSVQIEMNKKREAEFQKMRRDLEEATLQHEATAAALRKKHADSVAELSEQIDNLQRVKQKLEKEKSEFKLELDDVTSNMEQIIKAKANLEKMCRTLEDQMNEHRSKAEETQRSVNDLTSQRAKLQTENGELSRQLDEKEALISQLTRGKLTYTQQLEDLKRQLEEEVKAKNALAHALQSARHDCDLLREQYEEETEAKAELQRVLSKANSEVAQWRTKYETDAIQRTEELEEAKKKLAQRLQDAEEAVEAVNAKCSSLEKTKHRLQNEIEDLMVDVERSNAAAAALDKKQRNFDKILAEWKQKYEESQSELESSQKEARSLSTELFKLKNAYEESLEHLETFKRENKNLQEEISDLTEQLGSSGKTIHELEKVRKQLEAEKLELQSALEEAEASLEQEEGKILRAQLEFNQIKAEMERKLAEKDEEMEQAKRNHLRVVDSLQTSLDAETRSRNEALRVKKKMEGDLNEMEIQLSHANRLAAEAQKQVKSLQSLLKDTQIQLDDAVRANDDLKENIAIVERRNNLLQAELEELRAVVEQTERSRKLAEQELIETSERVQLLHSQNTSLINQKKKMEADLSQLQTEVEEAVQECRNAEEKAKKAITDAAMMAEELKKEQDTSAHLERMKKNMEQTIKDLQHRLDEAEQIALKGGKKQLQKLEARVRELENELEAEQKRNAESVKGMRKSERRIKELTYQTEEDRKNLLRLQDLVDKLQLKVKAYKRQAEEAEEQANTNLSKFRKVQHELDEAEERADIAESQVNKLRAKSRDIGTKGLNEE
bovine cardiac myofibrils (full-length cardiac myosin ATPase in the native sarcomere), sequence (P85100 whole entry partner): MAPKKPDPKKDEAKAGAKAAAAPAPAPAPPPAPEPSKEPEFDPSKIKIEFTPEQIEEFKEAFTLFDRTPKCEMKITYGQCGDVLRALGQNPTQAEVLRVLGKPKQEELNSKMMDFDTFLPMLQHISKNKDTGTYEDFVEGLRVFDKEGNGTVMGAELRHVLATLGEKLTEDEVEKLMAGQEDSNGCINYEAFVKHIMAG
bovine cardiac myofibrils (full-length cardiac myosin ATPase in the native sarcomere), sequence (Q3SZE5 whole entry partner): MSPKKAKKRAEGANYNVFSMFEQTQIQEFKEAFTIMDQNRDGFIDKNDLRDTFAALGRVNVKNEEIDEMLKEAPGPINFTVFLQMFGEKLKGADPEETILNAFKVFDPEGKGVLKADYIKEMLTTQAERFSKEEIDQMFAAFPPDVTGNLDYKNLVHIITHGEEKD

| Compound | CDMF75 IC15 | IC50 |
| --- | --- | --- |
| Cc1cc(C(=O)N[C@@H]2COc3cc(-c4noc(C)n4)ccc32)n(C)n1 [Compound 156, (S)-1,3-dimethyl-N-(6-(5-methyl-1,2,4-oxadiazol-3-yl)-2,3-dihydrobenzofuran-3-yl)-1H-pyrazole-5-carboxamide] | 1.1 µM | 4.7 µM |
| CCc1nc(-c2ccc3c(c2)CC[C@H]3NC(=O)c2cnn(C[C@@H](O)CO)c2)no1 [Compound 539, N-[(1R)-5-(5-ethyl(1,2,4-oxadiazol-3-yl))indanyl][1-((2R)-2,3-dihydroxypropyl)pyrazol-4-yl]carboxamide] | 1.3 µM | 6 µM |
| Cc1nc(-c2ccc3c(c2)CC[C@H]3NC(=O)c2cnn(CCO)c2)no1 [Compound 520, (R)-1-(2-hydroxyethyl)-N-(5-(5-methyl-1,2,4-oxadiazol-3-yl)-2,3-dihydro-1H-inden-1-yl)-1H-pyrazole-4-carboxamide] | 1.8 µM | 8.1 µM |
| Cc1cc(C(=O)NC2CCc3cc(-c4noc(C)n4)ccc32)ccn1 (centres unmarked) [Compound 3, 2-methyl-N-(5-(5-methyl-1,2,4-oxadiazol-3-yl)-2,3-dihydro-1H-inden-1-yl)isonicotinamide] | 1.8 µM | 7 µM |
| CCn1nccc1C(=O)NC1CCc2cc(-c3noc(C)n3)ccc21 (centres unmarked) [Compound 56, 1-ethyl-N-(5-(5-methyl-1,2,4-oxadiazol-3-yl)-2,3-dihydro-1H-inden-1-yl)-1H-pyrazole-5-carboxamide] | 2.5 µM | 8.5 µM |
| Cc1cc(C(=O)N[C@@H]2CCc3cc(-c4coc(C)n4)ccc32)ccn1 [Compound 146, (R)-2-methyl-N-(5-(2-methyloxazol-4-yl)-2,3-dihydro-1H-inden-1-yl)isonicotinamide] | 21.2 µM | > 39.2 µM |
| CCc1nc(-c2ccc3c(c2)CC[C@H]3NC(=O)c2nccn2C)no1 [Compound 579, (R)-N-(5-(5-ethyl-1,2,4-oxadiazol-3-yl)-2,3-dihydro-1H-inden-1-yl)-1-methyl-1H-imidazole-2-carboxamide] | 1.2 µM | 5.1 µM |
| Cc1cc(C(=O)N[C@@H]2CCc3cc(-c4nc(C)no4)ccc32)n(C)n1 [Compound 194, (R)-1,3-dimethyl-N-(5-(3-methyl-1,2,4-oxadiazol-5-yl)-2,3-dihydro-1H-inden-1-yl)-1H-pyrazole-5-carboxamide] | 0.7 µM | 2.6 µM |
| COCc1nc(-c2ccc3c(c2)CC[C@H]3NC(=O)c2cc(OC)no2)no1 [Compound 693, (R)-3-methoxy-N-(5-(5-(methoxymethyl)-1,2,4-oxadiazol-3-yl)-2,3-dihydro-1H-inden-1-yl)isoxazole-5-carboxamide] | 0.9 µM | 3.7 µM |
| [2H]C([2H])([2H])c1nc(-c2ccc3c(c2)CC[C@H]3NC(=O)c2oncc2C)no1 [Compound 248, (R)-4-methyl-N-(5-(5-(methyl-d3)-1,2,4-oxadiazol-3-yl)-2,3-dihydro-1H-inden-1-yl)isoxazole-5-carboxamide] | 0.4 µM | 1.5 µM |
| O=C(NC1CCc2cc(-c3noc(C(F)F)n3)ccc21)c1ccccc1 (centres unmarked) [Compound 4, N-(5-(5-(difluoromethyl)-1,2,4-oxadiazol-3-yl)-2,3-dihydro-1H-inden-1-yl)benzamide] | 0.43 µM | 1.6 µM |
| CCc1nc(-c2ccc3c(c2)CC[C@H]3NC(=O)c2cc(CO)ccc2F)no1 [Compound 649, (R)-N-(5-(5-ethyl-1,2,4-oxadiazol-3-yl)-2,3-dihydro-1H-inden-1-yl)-2-fluoro-5-(hydroxymethyl)benzamide] | 0.9 µM | 3.4 µM |
| CC(C)COC(=O)N[C@@H]1CCc2cc(-c3noc(C(F)F)n3)ccc21 [Compound 280, isobutyl (R)-(5-(5-(difluoromethyl)-1,2,4-oxadiazol-3-yl)-2,3-dihydro-1H-inden-1-yl)carbamate] | 0.7 µM | 2.7 µM |
